# Measured values: patent publication US4837228A, “Antiinflammatory and antimicrobial compounds and compositions” (The University of Mississippi, priority 1982, dated 1989)
# Several values for one entry are separate records, joined by “and”; a condition that tells them apart may be missing. Equal entries are not always repeated. Where two headings read alike, the source gives them in different places.
# Experiments:
# [1] = tested on: Trichophyton mentagrophytes; assay: agar well diffusion assay, T. mentagrophytes; type: cell-based; details: for agar well diffusion result in words: one entry across 48 hr and 72 hr; for width of inhibition zone: from edge of agar well
# Protocol: (§1) Both qualitative and quantitative screens were performed. Qualitative screening was accomplished using the agar well diffusion assay technque while quantitative screening was accomplished by the two-fold (broth) serial dilution method to determine the minimum inhibitory concentration (MIC). Innoculation was accomplished with one loop-full of a 1:10 dilution of the 24-hour-old broth culture, (fungal cultures and M.smegmatis more often required 48 to 72 hours of incubation) of the test organisms in sterile water. Streptomycin sulfate was used as a positive control for antibacterial activity while amphitericin B was used as an antifungal positive control. Organisms utilized in the screens included gram-positive, gram-negative, and acid-fast bacteria as well as different types of fungi. […] An intermediate type activity is seen where R is hydrogen. However, where R is lengthened up to C15 a decrease in activity was noted. Total saturation of the two double bonds in the compounds having a methyl side chain lead, in most cases, to an increase in both antifungal and antibacterial activity.
# [2] = tested on: Aspergillus niger; assay: agar well diffusion assay, A. niger; type: cell-based; details: from edge of agar well
# Protocol: as §1
# [3] = tested on: Pseudomonas aeruginosa; assay: agar well diffusion assay, Ps. aeruginosa; type: cell-based; details: from edge of agar well
# Protocol: as §1
# [4] = tested on: Mycobacterium smegmatis; assay: agar well diffusion assay, M. smegmatis; type: cell-based; details: from edge of agar well
# Protocol: as §1
# [5] = tested on: Candida albicans; assay: agar well diffusion assay, C. albicans; type: cell-based; details: from edge of agar well
# Protocol: as §1
# [6] = tested on: Bacillus subtilis; assay: agar well diffusion assay, B. subtilis; type: cell-based; details: from edge of agar well
# Protocol: as §1
# [7] = tested on: Escherichia coli; assay: agar well diffusion assay, E. coli; type: cell-based; details: from edge of agar well
# Protocol: as §1
# [8] = tested on: Saccharomyces cerevisiae; assay: agar well diffusion assay, S. cerevisiae; type: cell-based; details: from edge of agar well
# Protocol: as §1
# [9] = tested on: Staphylococcus aureus; assay: agar well diffusion assay, S. aureus; type: cell-based; details: from edge of agar well
# Protocol: as §1
# [10] = tested on: erythrocyte (heat-induced hemolysis); assay: erythrocyte membrane stabilization assay (heat-induced erythrocyte hemolysis); type: cell-based; details: Erythrocyte; for inhibition at 250 µM: 2.5 × 10^-4 M
# Protocol: The published procedure (Proc. Soc. Exp. Biol. Med. 1967; 125; 837-842 Brow et al) for in vitro assay for antiinflammatory agents based on stabilization of erythrocytes was used. All compounds were prepared for administration by dissolving in physiologic saline or suspending in 2% ethanol in saline and the pH adjusted to 7.4 The concentrations tested in one series are given in Table 8. Aspirin (ASA) and phenylbutazone were used as positive controls for comparison of activity. Tests using this procedure were successfully and repeatedly using either 40% or 20% RBC suspensions.
# [11] = tested on: Candida albicans; assay: MIC, two-fold (broth) serial dilution, C. albicans; type: cell-based
# Protocol: as §1
# [12] = tested on: Trichophyton mentagrophytes; assay: MIC, two-fold (broth) serial dilution, T. mentagrophytes; type: cell-based
# Protocol: as §1
# [13] = tested on: Mycobacterium smegmatis; assay: MIC, two-fold (broth) serial dilution, M. smegmatis; type: cell-based
# Protocol: as §1
# [14] = tested on: Staphylococcus aureus; assay: MIC, two-fold (broth) serial dilution, S. aureus; type: cell-based
# Protocol: as §1
# [15] = tested on: Bacillus subtilis; assay: MIC, two-fold (broth) serial dilution, B. subtilis; type: cell-based
# Protocol: as §1
# [16] = tested on: Saccharomyces cerevisiae; assay: MIC, two-fold (broth) serial dilution, S. cerevisiae; type: cell-based
# Protocol: as §1
# [17] = tested on: carrageenan-induced rat paw edema; assay: carrageenan-induced rat paw edema test, intraperitoneal dosing; type: in vivo; details: Table 5, * P = 0.01
# Protocol: Two methods were used to assess the antiinflammatory activity of the compounds of the invention: the carrageenan-induced rat paw edema test and, the erythrocyte membrane stabilization assay.
# In the Rat Paw Edema Test, the rats utilized were divided into test groups of six to eight animals, weighed and marked so that individual rats could be identified; one hour before testing all rats were given a 700 mg/kg intraperitoneal injection of ethyl urethane in distilled water to render them tractable during testing. A circle was drawn, with a felt-tipped marker, around the hind leg of each rat just above the ankle, and each rat was dosed with a test or control compound by intraperitoneal injection. Negative control groups received the vehicle; while positive control groups received a dose of phenylbutazone (PBZ) as shown in Table II. Test compounds were given at doses of 60, 120, 240 and 480 mg/kg. The positive controls were given at 120 mg/kg and 60 mg/kg. Phenylbutazone was prepared for injection by suspending it in normal saline using Tween 60. The rats were then held in group cages for 30 minutes. The volume of the left hind paw was measured using a mercury displacement pleysmograph. The paw is dipped into the mercury until the mercury touches the line above the ankle. Mercury is then withdrawn until the mercury returns to its original level. The amount of mercury removed is measured in milliliters (ml). The mercury can be measured accurately to 0.01 ml. This left hind paw was then injected with 0.1 ml of a 5% w/v solution of viscous carageenan in normal saline. The injection was given between the metatarsal bones using a 27 gauge needle, and the rats then held in group cages for 3 hours. The volume of the left hind paws was measured again in the pleysmograph. The results were computed in the following manner:
# a. A mean is taken for both the pre-injection and post-injection paw volume of each test group.
# b. The mean difference in volume (MDV) for each test group is computed by subtracting the pre-injection means from the post-injection mean.
# c. The percent of control is computed for each test [formula] The percent of control is used to compare the efficacy of the various drug treatments.
# d. The percent increase in paw volume is calculated for each group as: [formula] The percent increase is used to compare the amount of edma observed in one experiment to the amount of edma observed in other experiments.
# The data from the rat paw test were further analyzed using a one-way analysis of varience (ANOVA) and Duncan's New Multiple Range Test. The pre-injection score of each animal was subtracted from his post-injection score and an analysis of the different scores were conducted.
# The procedure described above was followed. […] The vehicle control used was Tween 60, Arlacel and distilled water prepared without CBC(II).
# [18] = 24 hr, listed as Streptomycin-SO4
# [19] = 48 hr, listed as Streptomycin-SO4
compound,measurement,setting,value
"CCCCCc1cc(O)c2c(c1)OC(C)(CCCC(C)C)CC2 (stereo not shown) [CBC (X), 2-methyl-2(4'-methyl-pentyl)-5-hydroxy-7-pentyl chroman]",agar well diffusion result in words,[1],No growth
same,width of inhibition zone,[2]; 48 hr,1. mm
same,width of inhibition zone,[2]; 72 hr,1. mm
same,width of inhibition zone,[3]; 24 hr,1. mm
same,width of inhibition zone,[3]; 48 hr,1. mm
same,width of inhibition zone,[4]; 24 hr,7. mm
same,width of inhibition zone,[4]; 48 hr,7. mm
same,width of inhibition zone,[5]; 48 hr,2. mm
same,width of inhibition zone,[5]; 72 hr,3. mm
same,width of inhibition zone,[6]; 24 hr,4.0 mm
same,width of inhibition zone,[6]; 48 hr,4.0 mm
same,width of inhibition zone,[7]; 24 hr,5. mm
same,width of inhibition zone,[7]; 48 hr,5. mm
same,width of inhibition zone,[8]; 48 hr,7. mm
same,width of inhibition zone,[8]; 72 hr,7. mm
same,width of inhibition zone,[9]; 24 hr,13. mm
same,width of inhibition zone,[9]; 48 hr,13. mm
"CC(=O)Oc1ccccc1C(=O)O [Aspirin, Acetylsalicylic Acid, reference compound]",inhibition at 250 µM,"[10]; Table 8, read-out: inhibition of heat-induced erythrocyte hemolysis",21%
same,inhibition at 250 µM,"[10]; Table 9 Test 1 (20% RBC), read-out: percent inhibition of heat-induced erythrocyte hemolysis",21%
same,inhibition at 500 µM,"[10]; Table 9 Test 3 (20% RBC), 5.0 × 10^-4 M, read-out: percent inhibition of heat-induced erythrocyte hemolysis",40%
same,inhibition at 500 µM,"[10]; 5×10^-4 M, read-out: inhibition of heat-induced red cell hemolysis",40%
"C[C@@H]1[C@H](O)[C@@H](C)/C=C/C=C/C=C/C=C/C=C/C=C/C=C/[C@H](O[C@@H]2O[C@H](C)[C@@H](O)[C@H](N)[C@@H]2O)C[C@@H]2O[C@](O)(C[C@@H](O)C[C@@H](O)[C@H](O)CC[C@@H](O)C[C@@H](O)CC(=O)O[C@H]1C)C[C@H](O)[C@H]2C(=O)O [Amphotericin B, reference compound]",width of inhibition zone,[1]; 48 hr,4. mm
same,width of inhibition zone,[1]; 72 hr,4. mm
same,agar well diffusion result in words,[1],No growth
same,width of inhibition zone,[2]; 48 hr,4. mm and 2. mm
same,MIC,[11]; 72 hr,25 µg/mL
same,width of inhibition zone,[5]; 48 hr,7. mm and 5. mm
same,MIC,[12]; 48 hr,25.0 µg/mL
same,MIC,[12]; 72 hr,25.0 µg/mL and 50 µg/mL
same,MIC,"[12]; Trichophyton mentagrophytes, 72 h, read-out: MIC",25 µg/mL
same,width of inhibition zone,[8]; 48 hr,7. mm
same,width of inhibition zone,[8]; 72 hr,8. mm and 5. mm
"[H]/N=C(/N)N[C@H]1[C@H](O)[C@@H](O)[C@H](O[C@@H]2O[C@@H](C)[C@](O)(C=O)[C@H]2O[C@@H]2O[C@@H](CO)[C@H](O)[C@@H](O)[C@@H]2NC)[C@@H](N/C(N)=N\[H])[C@@H]1O [Streptomycin SO4, reference compound]",width of inhibition zone,[3]; 24 hr,3. mm
same,width of inhibition zone,[3]; [18],7. mm
same,width of inhibition zone,[3]; 48 hr,3. mm
same,width of inhibition zone,[3]; [19],6. mm
same,width of inhibition zone,[4]; 24 hr,20. mm
same,width of inhibition zone,[4]; 48 hr,22. mm
same,MIC,[13]; 24 hr,1.56 µg/mL
same,MIC,[13]; [18],1.56 µg/mL and 0.78 µg/mL
same,MIC,[13]; 48 hr,1.56 µg/mL
same,MIC,[13]; [19],1.56 µg/mL and 0.78 µg/mL
same,MIC,[14]; 24 hr,3.12 µg/mL
same,MIC,[14]; 48 hr,12.5 µg/mL and 6.25 µg/mL
same,MIC,[14]; [19],12.5 µg/mL and 25.0 µg/mL and 25 µg/mL
same,width of inhibition zone,[6]; 24 hr,7. mm
same,width of inhibition zone,[6]; [18],11. mm
same,width of inhibition zone,[6]; 48 hr,8. mm
same,width of inhibition zone,[6]; [19],10. mm
same,MIC,[15]; 24 hr,3.12 µg/mL
same,MIC,[15]; 48 hr,25 µg/mL
same,width of inhibition zone,[7]; 24 hr,2. mm
same,width of inhibition zone,[7]; [18],5. mm
same,width of inhibition zone,[7]; 48 hr,2. mm
same,width of inhibition zone,[7]; [19],5. mm
same,width of inhibition zone,[9]; 24 hr,9. mm
same,width of inhibition zone,[9]; [18],10. mm
same,width of inhibition zone,[9]; 48 hr,9. mm
same,width of inhibition zone,[9]; [19],10. mm
2-methyl-2(4'-methyl-pent-3'-enyl)-5-hydroxy-7-pent-dec-8'-enyl chromene [CBC (VIII)],MIC,[16]; 48 hr,100 µg/mL
same,MIC,[16]; 72 hr,100 µg/mL
same,MIC,[11]; 48 hr,50 µg/mL
same,MIC,[11]; 72 hr,100 µg/mL
same,MIC,[13]; 24 hr,12.5 µg/mL and 25 µg/mL
same,MIC,[12]; 48 hr,25 µg/mL
same,MIC,[12]; 72 hr,50 µg/mL
"Cc1ccc(C(=O)c2ccc(CC(=O)O)n2C)cc1 [Tolmetin, reference compound]",inhibition at 200 µM,"[10]; Table 9 Test 1 (20% RBC), 2.0 × 10^-4 M, read-out: percent inhibition of heat-induced erythrocyte hemolysis",27%
2-methyl-2(4'-methyl-pentyl)-5-hydroxy-7-methyl chroman [CBC (V)],agar well diffusion result in words,[1],No growth
same,width of inhibition zone,[2]; 48 hr,3. mm
same,width of inhibition zone,[2]; 72 hr,3. mm
same,width of inhibition zone,[3]; 24 hr,4. mm
same,width of inhibition zone,[3]; 48 hr,3. mm
same,MIC,[16]; 48 hr,6.25 µg/mL and 12.5 µg/mL
same,MIC,[16]; 72 hr,12.5 µg/mL
same,width of inhibition zone,[4]; 24 hr,25. mm
same,width of inhibition zone,[4]; 48 hr,25. mm
same,inhibition of carrageenan-induced rat paw edema,[17]; 60 mg/kg i.p.,53%
same,inhibition of carrageenan-induced rat paw edema,[17]; 120 mg/kg i.p.,63%
same,inhibition of carrageenan-induced rat paw edema,[17]; 240 mg/kg i.p.,92%
same,width of inhibition zone,[5]; 48 hr,3.0 mm
same,width of inhibition zone,[5]; 72 hr,3.0 mm
same,MIC,[13]; 24 hr,3.12 µg/mL
same,MIC,[14]; 48 hr,3.12 µg/mL
same,width of inhibition zone,[6]; 24 hr,16.0 mm
same,width of inhibition zone,[6]; 48 hr,9.0 mm
same,MIC,[15]; 24 hr,3.12 µg/mL and 1.56 µg/mL
same,MIC,[15]; 48 hr,3.12 µg/mL and 1.56 µg/mL
same,width of inhibition zone,[7]; 24 hr,5. mm
same,width of inhibition zone,[7]; 48 hr,5. mm
same,width of inhibition zone,[8]; 48 hr,22. mm
same,width of inhibition zone,[8]; 72 hr,22. mm
same,width of inhibition zone,[9]; 24 hr,25. mm
same,width of inhibition zone,[9]; 48 hr,25. mm
"CCCCCc1cc(O)cc2c1C=CC(C)(CCC=C(C)C)O2 (stereo not shown) [Iso CBC (IX), 2-methyl-2(4'-methyl-pent-3'-enyl)-5-pentyl-7-hydroxy chromene]",MIC,"[11]; Candida albicans, 48 h, read-out: MIC",50 µg/mL
same,MIC,"[11]; Candida albicans, 72 h, read-out: MIC",100 µg/mL
same,MIC,"[13]; Mycolicibacterium smegmatis, 24 h, read-out: MIC",25 µg/mL
same,MIC,"[13]; Mycolicibacterium smegmatis, 48 h, read-out: MIC",25 µg/mL
same,inhibition at 100 µM,"[10]; read-out: inhibition of heat-induced erythrocyte hemolysis, Table 8, 1 × 10^-4 M",75%
same,MIC,"[15]; Bacillus subtilis, 24 h, read-out: MIC",0.78 µg/mL
same,MIC,"[15]; Bacillus subtilis, 48 h, read-out: MIC",3.12 µg/mL
